Assay results as given in patent US20110130380A1, “Heteroaryl Kinase Inhibitors” (priority 2009, published 2011).

The compounds below were run against Cdk9/cyclinT1 (Homo sapiens, UniProt P50750) (assay: Cdk9/cyclinT1 IMAP Protocol (fluorescence polarization kinase assay)). Settings: Cdk9_cyclinT1_IC50, Table V; generated using one of the two Cdk9/cyclinT1 assays (IMAP or Alpha Screen), not stated which; ATP 6 uM.
Cdk9/cyclinT1, sequence (P50750 whole entry): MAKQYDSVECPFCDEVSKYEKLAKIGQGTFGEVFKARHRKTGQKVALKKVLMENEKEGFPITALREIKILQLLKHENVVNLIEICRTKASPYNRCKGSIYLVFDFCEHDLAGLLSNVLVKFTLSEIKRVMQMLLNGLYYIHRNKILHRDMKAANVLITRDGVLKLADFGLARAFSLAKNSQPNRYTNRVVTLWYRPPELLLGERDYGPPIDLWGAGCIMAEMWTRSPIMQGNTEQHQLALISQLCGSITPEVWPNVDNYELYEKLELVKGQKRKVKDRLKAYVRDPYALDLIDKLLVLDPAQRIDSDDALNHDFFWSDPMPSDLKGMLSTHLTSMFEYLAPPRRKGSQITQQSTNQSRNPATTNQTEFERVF
Cdk9/cyclinT1, sequence (O60563 whole entry partner): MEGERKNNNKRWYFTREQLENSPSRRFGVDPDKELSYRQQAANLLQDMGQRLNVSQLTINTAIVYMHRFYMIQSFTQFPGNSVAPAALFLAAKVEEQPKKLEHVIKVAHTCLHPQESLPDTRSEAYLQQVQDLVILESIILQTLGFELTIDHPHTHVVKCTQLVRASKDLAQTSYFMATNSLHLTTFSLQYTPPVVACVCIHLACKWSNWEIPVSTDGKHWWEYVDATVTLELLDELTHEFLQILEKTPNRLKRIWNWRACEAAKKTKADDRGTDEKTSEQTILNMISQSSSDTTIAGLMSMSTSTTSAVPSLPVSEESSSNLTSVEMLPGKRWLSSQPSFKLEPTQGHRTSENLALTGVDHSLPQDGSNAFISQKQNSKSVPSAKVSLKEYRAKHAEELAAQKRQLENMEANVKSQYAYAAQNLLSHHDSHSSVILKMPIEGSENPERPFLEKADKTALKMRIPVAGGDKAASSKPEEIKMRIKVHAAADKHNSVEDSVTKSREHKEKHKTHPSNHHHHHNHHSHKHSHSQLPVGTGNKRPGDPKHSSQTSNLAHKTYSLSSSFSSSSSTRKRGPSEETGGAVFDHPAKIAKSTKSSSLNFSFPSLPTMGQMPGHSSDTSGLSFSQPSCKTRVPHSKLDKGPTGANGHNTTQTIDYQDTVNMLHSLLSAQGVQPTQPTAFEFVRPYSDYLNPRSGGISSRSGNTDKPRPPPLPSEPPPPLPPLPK
For `O=C(Nc1cc(-c2ccc(F)c(NCC3CCOCC3)n2)c(Cl)cn1)C1CNCCOC1` (centres unmarked) [Example 201, [1,4]Oxazepane-6-carboxylic acid {5′-chloro-5-fluoro-6-[(tetrahydro-pyran-4-ylmethyl)-amino]-[2,4′]bipyridinyl-2′-yl}-amide], the IC50 was 1 nM.
In the case of `O=C(Nc1cc(-c2cccc(NCC3CCCCCC3)n2)c(Cl)cn1)[C@@H]1CCCNC1` [Example 19, (R)-Piperidine-3-carboxylic acid [5′-chloro-6-(cycloheptylmethyl-amino)-[2,4′]bipyridinyl-2′-yl]-amide], the IC50 is reported as under 8 nM.
`N#CC1(CNc2cccc(-c3cc(NC(=O)[C@@H]4CCCNC4)ncc3Cl)n2)CCOCC1` [Example 238, (R)-Piperidine-3-carboxylic acid {5′-chloro-6-[(4-cyano-tetrahydro-pyran-4-ylmethyl)-amino]-[2,4′]bipyridinyl-2′-yl}-amide] showed an IC50 of 1 nM.
`O=C(Nc1cc(-c2cccc(NCC3CCOCC3)n2)c(Cl)cn1)[C@@H]1CCCNC1` [Example 3, (R)-Piperidine-3-carboxylic acid {5′-chloro-6-[(tetrahydro-pyran-4-ylmethyl)-amino]-[2,4′]bipyridinyl-2′-yl}-amide] showed an IC50 of 1 nM.
`C[C@@H]1CC[C@@H](C(=O)Nc2cc(-c3ccc(F)c(NCC4CCOCC4)n3)c(Cl)cn2)CN1C` (single isomer, unassigned) [Example 196] showed an IC50 of 17 nM.
`O=C(Nc1cc(-c2cccc(NC[C@H]3CCCO3)n2)c(Cl)cn1)[C@@H]1CCCNC1` [Example 25, (R)-Piperidine-3-carboxylic acid (5′-chloro-6-{[(R)-1-(tetrahydro-furan-2-yl)methyl]-amino}-[2,4′]bipyridinyl-2′-yl)-amide] gave an IC50 of 47 nM.
With `CC[C@H]1CC[C@H](C(=O)Nc2cc(-c3ccc(F)c(NCC4CCOCC4)n3)c(Cl)cn2)CN1` (single isomer, unassigned) [Example 257] the IC50 was 5 nM.
Compound `O=C(COc1ccc(Cl)cn1)Nc1cc(-c2cccc(NCC3CCOCC3)n2)c(Cl)cn1` [Example 103, 2-(5-Chloro-pyridin-2-yloxy)-N-{5′-chloro-6-[(tetrahydro-pyran-4-ylmethyl)-amino]-[2,4′]bipyridinyl-2′-yl}-acetamide] has an IC50 of 27 nM.
`CC1(CNc2nc(-c3cc(NC(=O)[C@@H]4CCCNC4)ncc3Cl)ccc2F)CCOCC1` [Example 208, (R)-Piperidine-3-carboxylic acid {5′-chloro-5-fluoro-6-[(4-methyl-tetrahydro-pyran-4-ylmethyl)-amino]-[2,4′]bipyridinyl-2′-yl}-amide] was tested, and the IC50 was 1 nM.
For `O=C(Nc1cc(-c2nc(NCC3CCOCC3)ccc2Cl)c(Cl)cn1)C1CNCCO1` (centres unmarked) [Example 87, Morpholine-2-carboxylic acid {3,5′-dichloro-6-[(tetrahydro-pyran-4-ylmethyl)-amino]-[2,4′]bipyridinyl-2′-yl}-amide], the IC50 was 18 nM.
`C[C@H]1CC[C@H](C(=O)Nc2cc(-c3cccc(NC[C@H]4CCOC(C)(C)C4)n3)c(Cl)cn2)CN1` (single isomer, unassigned) [Example 245] gave an IC50 of 6 nM.
`O=C(Nc1cc(-c2cccc(NCC3COCCO3)n2)c(Cl)cn1)[C@@H]1CCCNC1` (stereo partly drawn) [Example 24, (R)-Piperidine-3-carboxylic acid {5′-chloro-6-[([1,4]dioxan-2-ylmethyl)-amino]-[2,4′]bipyridinyl-2′-yl}-amide] showed an IC50 of under 8 nM.
For `CC(=O)Nc1cc(-c2cccc(NCC3CCOCC3)n2)c(Cl)cn1` [Example 69, N-{5′-Chloro-6-[(tetrahydro-pyran-4-ylmethyl)-amino]-[2,4′]bipyridinyl-2′-yl}-acetamide], the IC50 was 139 nM.

Same assay, conditions: Cdk9_cyclinT1_IC50, generated using one of the two Cdk9/cyclinT1 assays (IMAP or Alpha Screen), not specified per value; ATP 6 uM
With `O=C(Nc1cc(-c2cc(NCC3CCOCC3)cnc2Cl)c(Cl)cn1)[C@H]1CNCCO1` [Example 314, (R)-Morpholine-2-carboxylic acid {2,5′-dichloro-5-[(tetrahydro-pyran-4-ylmethyl)-amino]-[3,4′]bipyridinyl-2′-yl}-amide] the IC50 was 3 nM.
